Like-named read-outs stand apart in the source and are kept apart here.
Experiments:
[1] = biological target: T1, hMSH2/MSH3 (Homo sapiens, UniProt P20585+P43246); experiment: fluorescence anisotropy competition, displacement of pre-bound BD-ADP; format: binding
[2] = biological target: T2, hMSH2/MSH6 (Homo sapiens, UniProt P43246+P52701); experiment: UV cross-linking of [alpha-32P]-ADP, SDS-PAGE; format: binding
[3] = biological target: T1, hMSH2/MSH3; experiment: UV cross-linking of [alpha-32P]-ADP, SDS-PAGE; format: binding; conditions: 5 mM Mg2+; pH 8.1; no DNA; either hMSH2 or hMSH3 subunit
[4] = biological target: T1, hMSH2/MSH3; experiment: UV cross-linking of [alpha-32P]-AMP-PNP, SDS-PAGE; format: binding; conditions: +Mg2+; no DNA
[5] = biological target: T2, hMSH2/MSH6; experiment: fluorescence anisotropy, equilibrium binding; conditions: no DNA, labelled compound

T2 sequence (P43246 2-934): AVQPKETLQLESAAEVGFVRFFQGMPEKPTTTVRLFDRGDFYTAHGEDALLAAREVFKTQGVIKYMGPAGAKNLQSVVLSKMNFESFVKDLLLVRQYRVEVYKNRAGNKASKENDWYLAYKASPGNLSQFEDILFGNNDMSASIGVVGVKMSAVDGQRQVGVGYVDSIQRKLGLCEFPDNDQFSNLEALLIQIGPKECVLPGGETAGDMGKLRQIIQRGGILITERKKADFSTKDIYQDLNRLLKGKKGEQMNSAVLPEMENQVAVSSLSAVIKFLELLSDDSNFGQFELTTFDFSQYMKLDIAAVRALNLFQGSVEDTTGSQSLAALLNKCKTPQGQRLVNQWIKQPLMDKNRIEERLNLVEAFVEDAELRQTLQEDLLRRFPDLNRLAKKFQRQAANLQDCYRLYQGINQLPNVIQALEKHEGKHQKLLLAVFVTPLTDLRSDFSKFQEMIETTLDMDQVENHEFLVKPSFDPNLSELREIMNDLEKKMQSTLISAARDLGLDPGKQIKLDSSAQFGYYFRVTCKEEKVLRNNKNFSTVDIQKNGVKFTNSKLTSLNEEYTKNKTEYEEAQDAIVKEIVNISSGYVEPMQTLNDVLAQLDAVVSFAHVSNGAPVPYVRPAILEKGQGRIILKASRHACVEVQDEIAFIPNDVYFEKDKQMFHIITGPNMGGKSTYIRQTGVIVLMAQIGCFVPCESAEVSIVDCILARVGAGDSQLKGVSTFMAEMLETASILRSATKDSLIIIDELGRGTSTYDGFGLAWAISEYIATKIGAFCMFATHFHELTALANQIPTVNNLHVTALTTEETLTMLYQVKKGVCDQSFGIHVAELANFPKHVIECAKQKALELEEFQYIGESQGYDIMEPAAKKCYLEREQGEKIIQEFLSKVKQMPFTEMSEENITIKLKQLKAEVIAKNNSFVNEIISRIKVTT
T2 sequence (P52701 whole entry): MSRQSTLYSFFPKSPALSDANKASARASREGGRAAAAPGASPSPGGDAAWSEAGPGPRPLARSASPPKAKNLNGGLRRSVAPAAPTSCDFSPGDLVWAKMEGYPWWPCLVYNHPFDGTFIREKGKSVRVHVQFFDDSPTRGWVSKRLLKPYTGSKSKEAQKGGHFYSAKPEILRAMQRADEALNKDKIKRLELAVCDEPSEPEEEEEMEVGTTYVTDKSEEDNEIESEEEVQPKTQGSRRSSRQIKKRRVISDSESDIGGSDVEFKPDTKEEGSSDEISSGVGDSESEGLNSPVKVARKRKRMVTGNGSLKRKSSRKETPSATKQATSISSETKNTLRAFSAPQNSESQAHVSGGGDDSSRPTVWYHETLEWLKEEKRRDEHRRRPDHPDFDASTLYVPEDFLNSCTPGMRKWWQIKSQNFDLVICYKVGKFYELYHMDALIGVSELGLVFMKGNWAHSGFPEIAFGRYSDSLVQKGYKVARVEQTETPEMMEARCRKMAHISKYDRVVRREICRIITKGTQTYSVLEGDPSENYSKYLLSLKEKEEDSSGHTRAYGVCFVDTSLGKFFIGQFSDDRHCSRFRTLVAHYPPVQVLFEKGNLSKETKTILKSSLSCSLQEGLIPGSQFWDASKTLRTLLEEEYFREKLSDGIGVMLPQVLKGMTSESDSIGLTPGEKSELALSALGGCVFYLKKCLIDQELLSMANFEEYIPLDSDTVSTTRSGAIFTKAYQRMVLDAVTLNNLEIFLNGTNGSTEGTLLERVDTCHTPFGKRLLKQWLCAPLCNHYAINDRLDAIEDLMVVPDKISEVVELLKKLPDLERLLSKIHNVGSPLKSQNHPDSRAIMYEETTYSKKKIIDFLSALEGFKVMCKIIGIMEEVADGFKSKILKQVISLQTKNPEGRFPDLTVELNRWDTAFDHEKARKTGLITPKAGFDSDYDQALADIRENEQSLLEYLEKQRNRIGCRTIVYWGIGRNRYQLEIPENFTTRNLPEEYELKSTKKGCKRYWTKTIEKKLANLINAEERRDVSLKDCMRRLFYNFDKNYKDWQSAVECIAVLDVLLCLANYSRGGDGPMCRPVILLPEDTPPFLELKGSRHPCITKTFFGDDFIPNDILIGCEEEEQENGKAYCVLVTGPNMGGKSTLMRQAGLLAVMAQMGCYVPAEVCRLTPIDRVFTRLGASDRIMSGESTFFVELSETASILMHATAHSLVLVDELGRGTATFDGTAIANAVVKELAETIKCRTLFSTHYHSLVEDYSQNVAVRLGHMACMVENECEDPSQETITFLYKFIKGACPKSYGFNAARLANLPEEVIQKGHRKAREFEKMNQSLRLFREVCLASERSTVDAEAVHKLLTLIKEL
T1 sequence (P43246 2-934): as the sequence (P43246 2-934) above
T1 sequence (P20585 whole entry): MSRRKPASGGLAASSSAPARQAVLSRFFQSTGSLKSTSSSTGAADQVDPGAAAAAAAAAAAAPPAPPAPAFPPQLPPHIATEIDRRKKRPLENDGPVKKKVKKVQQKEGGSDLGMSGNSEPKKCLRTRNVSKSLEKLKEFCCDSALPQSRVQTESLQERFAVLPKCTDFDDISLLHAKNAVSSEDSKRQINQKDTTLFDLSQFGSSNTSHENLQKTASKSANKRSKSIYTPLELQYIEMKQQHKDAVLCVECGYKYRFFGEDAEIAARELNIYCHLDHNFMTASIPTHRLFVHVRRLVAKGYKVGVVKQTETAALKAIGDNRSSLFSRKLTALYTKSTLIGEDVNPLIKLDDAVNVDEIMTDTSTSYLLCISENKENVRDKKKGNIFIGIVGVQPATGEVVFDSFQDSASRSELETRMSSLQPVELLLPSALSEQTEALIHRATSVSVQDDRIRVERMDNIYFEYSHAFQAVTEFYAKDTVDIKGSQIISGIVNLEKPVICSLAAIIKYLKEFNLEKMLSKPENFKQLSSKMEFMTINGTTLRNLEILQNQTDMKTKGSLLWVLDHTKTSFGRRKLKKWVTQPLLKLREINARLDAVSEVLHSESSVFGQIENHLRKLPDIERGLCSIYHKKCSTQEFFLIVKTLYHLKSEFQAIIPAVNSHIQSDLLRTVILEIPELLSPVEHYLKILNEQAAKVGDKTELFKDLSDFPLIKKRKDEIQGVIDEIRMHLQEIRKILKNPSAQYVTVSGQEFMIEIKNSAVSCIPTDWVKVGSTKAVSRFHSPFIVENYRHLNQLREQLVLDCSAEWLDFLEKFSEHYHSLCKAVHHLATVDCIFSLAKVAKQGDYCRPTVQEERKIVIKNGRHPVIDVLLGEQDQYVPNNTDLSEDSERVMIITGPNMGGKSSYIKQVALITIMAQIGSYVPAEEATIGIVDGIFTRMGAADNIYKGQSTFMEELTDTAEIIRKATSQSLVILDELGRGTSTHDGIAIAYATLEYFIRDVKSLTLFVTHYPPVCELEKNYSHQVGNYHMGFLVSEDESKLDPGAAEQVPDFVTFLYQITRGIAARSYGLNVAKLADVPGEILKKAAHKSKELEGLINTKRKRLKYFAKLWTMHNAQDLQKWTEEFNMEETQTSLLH

Nc1ncnc2c1ncn2[C@@H]1O[C@H](COP(=O)(O)OP(=O)(O)O)[C@@H](O)[C@H]1O [ADP]
Ki ([1]; +Mg2+, no DNA, competitive, hMSH3 subunit): compare KD and Ki for ADP in Supplemental Fig. 1a,c | Kd [2]: 0.65 µM | KD [3]: both subunits bound either nucleotide with high affinity, as quantified by the gel scans

Nc1ncnc2c1ncn2[C@@H]1O[C@H](COP(=O)(O)OP(=O)(O)NP(=O)(O)O)[C@@H](O)[C@H]1O [AMP-PNP]
Ki [1]: 11.3 µM | KD [4]: Results for x-linking with AMP-PNP displayed the same trend

BD-AMP-PNP
Kd ([5]; read-out: binding affinity, +Mg2+): 0.23 µM

BD-ATP
Kd ([5]; no Mg2+ (non-hydrolyzing)): 0.39 µM

From publication PMC2982795 (Nature structural & molecular biology, 2009)
